Laboratory results taken from patent publication US20070015733A1, “Aryl Phosphate Derivatives of d4T having Activity Against Resistant HIV Strains” (Parker Hughes Institute, priority 1998, published 2007).
Like-named read-outs stand apart in the source and are kept apart here.

Columns and labels:
HIV-1 (strain: HTLVIIIB) = assay: microbe, parasite or virus in culture; type: cell-based
Method: (§1) Percent inhibition of viral replication was calculated by comparing the p24 and RT activity values from the test substance-treated infected cells with those from untreated infected cells. In parallel, the cytotoxicity of the compounds was examined using a microculture tetrazolium assay (MTA) of cell proliferation, as described.in the Zarling, Enrice, and Uckun articles Supra).
(§2) Cellular Assays of Anti-HIV Activity and Cytotoxicity. […] Percent viral inhibition was calculated by comparing the RT activity values from the test substance-treated infected cells with RT values from untreated infected cells (i.e., virus controls).

in vitro [1] = details: human
Method: as §1, §2

in vitro [2] = details: human; remark: listed apart in the source
Method: as §1, §2
(§3) Antiviral susceptibility assays. Phenotypic drug susceptibility studies of HIV-1 isolates and strains were performed by measuring the production of the p24 gag protein in peripheral blood mononuclear cells (PBMC) from seronegative healthy volunteers in the presence of increasing concentrations of the anti-HIV agent using the quantitative Coulter HIV-1 p24 antigen ezyme immunoassay (EIA) and HIV-1 p24 Antigen Kinetic Standard (Beckman Coulter), as previously described (Uckun, 1998, Antimicrobial Agents and Chemotherapy 37(4): 835-38). Informed consent was obtained from the blood donors according to DHHS guidelines using consent forms approved by the Institutional Review Board. In brief, PBMC were cultured for 72 h in RPMI 1640 medium (Gibco) supplemented with 20% (vol/vol) heat-inactivated fetal bovine serum, 5% human interleukin-2 (Zeptometrix), 2 mM L-glutamine, 25 mM HEPES, 2 g/L NaHCO3, 100 U/ml penicillin/streptomycin (Gibco), 50 μg/ml gentamicin (Gibco), and 5 μg/ml phytohemagglutinin-P (PHA-P) (Sigma) for 24-72 hours prior to exposure to HIV at a multiplicity of infection of 0.001-0.1 during a 1-h adsorbtion period at 37±1° C. in a humidified 5-7% CO2 atmosphere. Subsequently, cells were cultured in 96-well microtiter plates (100 μl/well; 2×10^6 cells/ml, triplicate wells) in the presence of the anti-HIV agents at 6-7 different concentrations ranging from 0.0001 μM to 100 μM, and 25 μL aliquots of culture supernatants were removed from the wells on day 6 after infection for p24 EIA, as previously described (Uckun, 1998, Antimicrobial Agents and Chemotherapy, 37(4):835-38). Controls included uninfected and untreated cells (background control) and infected but untreated (virus control) cells. The p24 EIA utilizes a murine monoclonal antibody to HIV core protein used to coat microwell strips to which the antigen present in the test culture supernatant samples binds. Percent inhibition of viral replication was calculated by comparing the p24 values from the test substance-treated infected cells with p24 values from untreated infected cells (i.e., virus controls). The IC50 values were determined using the Statview statistics program (SAS Institute, Inc.). In parallel, the effects of various treatments on cell viability were also examined as previously described (Uckun, 1998, Antimicrobial Agents and Chemotherapy, 42:383-388). In brief, noninfected PBMC were treated with each compound for 5 days under identical experimental conditions. A microculture tetrazolium assay (MTA) was performed to quantitate cellular proliferation (Uckun, 1998, Antimicrobial Agents and Chemotherapy, 42:383-388).
In parallel, the cytotoxicity of the compounds was examined using a microculture tetrazolium assay (MTA) of cell proliferation, as described (in the Zarling, Enrice, and Uckun articles Supra).

[3] = tested on: Zidovudine-Sensitive Primary Clinical HIV-1 Isolates; assay: p24 drug susceptibility assay, zidovudine-sensitive primary clinical HIV-1 isolates in PBMC; type: cell-based; details: Human immunodeficiency virus 1, PBMC
Method: as §3
Phenotypic drug susceptibility studies of HIV-1 isolates and strains were performed by measuring the production of the p24 gag protein in peripheral blood mononuclear cells (PBMC) from seronegative healthy volunteers in the presence of increasing concentrations of the anti-HIV agent using the quantitative Coulter HIV-1 p24 antigen enzyme immunoassay (EIA) and HIV-1 p24 Antigen Kinetic Standard (Beckman Coulter), as previously described. StatView was used in the calculation of the IC50 values from each set of triplicate wells using the linearized form of an exponential equation (lnY=lnb0+b1X; where Y=% inhibition, X=drug concentration). The inhibition constants were log10 transformed to homogenize the variances within each group. […] P-values below 0.05 were deemed significant (JMP Software, SAS).

[4] = tested on: HIV-1 RT-MDR (NRTI-resistant, NNRTI-resistant); assay: p24 antigen assay, RT-MDR strain; type: cell-based
[5] = tested on: HIV-1 A17 (Y181C mutant, NNRTI-resistant); assay: p24 antigen assay, A17 strain in PBMC; type: cell-based; details: Human immunodeficiency virus 1, PBMC
Source text: In vitro assays of anti-HIV-1 activity.
Viruses. 20 primary clinical isolates with genotypic and/or phenotypic NRTI-resistance (isolated in the laboratory of D. Richman) and 10 clinical isolates with phenotypic stavudine (d4T) resistance (obtained through the AIDS Research and Reference Reagent Program, NIAID) were used in the current study. The HIV-1 strains HTLVIIIB (wildtype RT, NRTI-sensitive, NNRTI-sensitive), A17 (Y181 C mutant, NNRTI-resistant), A17-variant (Y181C+K103N mutant, NNRTI-resistant), and RT-MDR (M41 L, V106N, T215Y; NRTI-resistant, NNRTI-resistant) were also obtained from the AIDS Research and Reference Reagent Program, NIAID.
Antiviral susceptibility assays.

[6] = tested on: HIV-1 (HTLVIIIB) in TK-deficient CEM T-cells; assay: Inhibition of HIV-1 replication in TK-deficient CEM T-cells (p24 / RT activity); type: cell-based
Method: as §1, §2

[7] = read-out: IC50, μM (p24), Mean ± SE, mean over 10 zidovudine-sensitive clinical isolates
[8] = read-out: IC50, μM (p24), isolate 92BR025 (C/C, Brazil), PBMC
[9] = read-out: IC50, μM (p24), isolate 92RW008 (—/A, Rawanda), PBMC
[10] = read-out: IC50, μM (p24), isolate 93BR019 (—/BF, Brazil), PBMC
[11] = read-out: IC50, μM (p24), isolate 93BR020 (F/F, Brazil), PBMC
[12] = read-out: IC50, μM (p24), isolate 93BR029 (F/B, Brazil), PBMC
[13] = read-out: IC50, μM (p24), isolate 93IN101 (—/C, India), PBMC
[14] = read-out: IC50, μM (p24), isolate HIV-1G3 (—/G, Nigeria), PBMC
[15] = read-out: IC50 range, range over 10 zidovudine-sensitive clinical isolates
[16] = Human immunodeficiency virus 1, RT-MDR(Con) control strain (M41L, L74V, T215Y, V106N)
[17] = Human immunodeficiency virus 1, read-out: IC50 RTMDR, p24
[18] = Human immunodeficiency virus 1, CCRF-CEM, TK-deficient CEM cells, read-out: IC50 value for inhibition of RT activity
[19] = Human immunodeficiency virus 1, T-cell, TK-deficient CEM T-cells, Table 5, read-out: CEM IC50 [RT]
[20] = Human immunodeficiency virus 1, PBMC, read-out: IC50 value for inhibition of RT activity, peripheral blood mononuclear cells
[21] = Human immunodeficiency virus 1, read-out: IC50 [RT], PBMNC, unit not printed in Table 2 (0.040 = 40 nM)
[22] = Human immunodeficiency virus 1, read-out: IC50 [p24], PBMNC, unit not printed in Table 2 (0.018 = 18 nM)
[23] = Human immunodeficiency virus 1, read-out: PBMNC IC50 [RT], PBMNC, unit not given in Table 5 (0.04 = 40 nM)
[24] = primary isolate RW/92/8 (V179I), Table 14
[25] = read-out: IC50, μM (p24), isolate 92BR003 (B/B, Brazil), PBMC
[26] = read-out: IC50, μM (p24), isolate 92RW016 (subtype A/A, Rawanda), PBMC
[27] = read-out: IC50, μM (p24), isolate HIV-1JV1083 (—/G, Nigeria), PBMC
[28] = Human immunodeficiency virus 1, MT2, laboratory strain RT-MDR (V106N), MT-2 cells, Table 14
[29] = Human immunodeficiency virus 1, CCRF-CEM, TK-deficient CEM cells, read-out: IC50 value for inhibition of p24 production
[30] = Human immunodeficiency virus 1, T-cell, TK-deficient CEM, unit not printed in Table 2 (0.556 = 556 nM), read-out: IC50 [p24]
[31] = Human immunodeficiency virus 1, T-cell, TK-deficient CEM, unit not printed in Table 2 (2.355 = 2355 nM), read-out: IC50 [RT]

Row | SMILES | CC50 at 5 days (in vitro [2]; CC50, μM) [µM] | IC50 [3, 7] [µM] | IC50 [3, 8] [µM] | IC50 [3, 9] [µM] | IC50 [3, 10] [µM] | IC50 [3, 11] [µM] | IC50 [3, 12] [µM] | IC50 [3, 13] [µM] | IC50 [3, 14] [µM] | IC50 [3, 15] [µM] | IC90 ([3]; read-out: IC90 mean ±SE) [nM] | IC90 ([3]; read-out: IC90 range) [nM] | IC50 [4, 16] [nM] | IC50 [4, 17] [nM] | IC50 ([5]; read-out: IC50 A17) [nM] | IC50 [6, 18] [nM] | IC50 [6, 19] [nM] | IC50 (HIV-1 (strain: HTLVIIIB); [20]) [nM] | IC50 (HIV-1 (strain: HTLVIIIB); [21]) [nM] | IC50 (HIV-1 (strain: HTLVIIIB); [22]) [nM] | also measured
1 | Cc1cn([C@H]2C[C@H](N=[N+]=[N-])[C@@H](CO)O2)c(=O)[nH]c1=O [AZT, 3′-azido-3′-deoxythymidine] | 95.6 ± 2.9 | 0.004 ± 0.001 | 0.004 | 0.002 | 0.002 | 0.002 | 0.007 | 0.001 | 0.01 | 0.001 to 0.01 | 50 ± 10 | 11 to 90 | > 10000 | 68 | 0.055 | 200 | 200 |  |  |  | IC50 (HIV-1 (strain: HTLVIIIB); Human immunodeficiency virus 1, PBMC, peripheral blood mononuclear cells, read-out: IC50 value for inhibition of RT activity): 3 nM; IC50 (HIV-1 (strain: HTLVIIIB); Human immunodeficiency virus 1, PBMNC, unit not given in Table 5 (0.04 = 40 nM), read-out: PBMNC IC50 [RT]): 3 nM; IC50 (in vitro [1]; CEM IC50 [MTA]): > 10000 nM; CC50 at 5 days (in vitro [2]; CC50): 0.0527 µM; IC50 at 5 days (in vitro [2]; PBMNC IC50 [MTA]): > 10000 nM
2 | COC(=O)C(C)NP(=O)(OC[C@@H]1C=C[C@H](n2cc(C)c(=O)[nH]c2=O)O1)Oc1ccc(Br)cc1 (some centres unmarked) [Compound 1c, d4T-5′-[p-bromo-phenylmethoxyalaninyl phosphate]] |  | 0.002 ± 0.001 | 0.001 | 0.0008 | 0.0008 | 0.007 | 0.0008 | 0.0005 | 0.0005 |  |  |  | < 1 | 20 to 60 | 36 ± 21 | 57 | 60 | 42 | 42 | 22 | IC50 (HIV-1 (strain: HTLVIIIB); [23]): 40 nM; IC50 (in vitro [1]): > 10000 nM; CC50 at 5 days (in vitro [2]): > 100 µM; IC50 at 5 days (in vitro [2]): > 10000 nM; IC50 [3, 24]: 0.0008 µM; IC50 [3, 25]: 0.0006 µM; IC50 [3, 26]: 0.003 µM; IC50 [3, 27]: 0.001 µM; IC50 [4, 28]: < 1 nM; IC50 ([4]; read-out: IC50 RTMDR, p24): 21 ± 12 nM; IC50 [5]: < 1 nM; IC50 [6, 29]: 44 nM; IC50 [6, 30]: 44 nM; IC50 [6, 31]: 57 nM
3 | Cc1cn([C@H]2C=C[C@@H](CO)O2)c(=O)[nH]c1=O [d4T, 2′,3′-didehydro-2′,3′-dideoxythymidine] | 4.5 ± 1.7 | 0.24 ± 0.07 | 0.4 | 0.2 | 0.2 | 0.2 | 0.8 | 0.1 | 0.1 | 0.1 to 0.8 | 6380 ± 3890 | 1000 to 40900 |  |  |  | 2360 | 2400 | 40 | 40 | 18 | IC50 (HIV-1 (strain: HTLVIIIB); Human immunodeficiency virus 1, PBMC, read-out: IC50 value for inhibition of p24 production, peripheral blood mononuclear cells): 18 nM; IC50 (HIV-1 (strain: HTLVIIIB); Human immunodeficiency virus 1, read-out: PBMNC IC50 [RT], PBMNC, Table 4): 4 nM; IC50 (HIV-1 (strain: HTLVIIIB); [23]): 40 nM; IC50 (in vitro [1]; IC50 [MTA]): > 10000 nM; IC50 at 5 days (in vitro [2]; IC50 [MTA]): > 10000 nM; IC50 [3, 25]: 0.1 µM; IC50 [3, 26]: 0.1 µM; IC50 [3, 27]: 0.2 µM; IC50 [6, 29]: 556 nM; IC50 [6, 30]: 556 nM; IC50 [6, 31]: 2360 nM; IC50 ([6]; Human immunodeficiency virus 1, T-cell, read-out: CEM IC50 [RT], TK-deficient CEM T-cells, Table 4): 2340 nM
4 | Cc1ccnc2c1NC(=O)c1cccnc1N2C1CC1 [nevirapine] |  |  |  |  |  |  |  |  |  |  |  |  |  |  |  |  |  |  |  |  | CC50 at 5 days (in vitro [2]; PBMC or MT-2 cells, CC50 values, data not shown): > 100 µM; CC50 at 5 days (in vitro [2]; peripheral blood mononuclear cells (PBMC), CC50, μM, viability of PBMC): 5.1 ± 2.3 µM; IC50 [3, 24]: 0.1 µM; IC50 [4, 28]: 18000 ± 8000 nM; IC50 [5]: 47000 ± 7000 nM
